Test results: PubChem BioAssay AID2060898 (Molecular Pharmacology Branch, DTP, NCI, 2025)

Tested on: 616215-338-R-J1-PDC complex spheroid viability
Assay: Anticancer human tumor 616215-338-R-J1-PDC patient-derived colon adenocarcinoma cell line growth inhibition [RAS]
Details: for IC50: curve of first compound; for viability, T/C: stronger effect = lower value
Summary of the method: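 Tumour cells grown as complex spheroids with HUVEC endothelial cells and mesenchymal stem cells, treated with RAS pathway inhibitor combinations. Each agent spans half-log steps from near clinical Cmax, or 10 microM where Cmax is unknown.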

[1] = second compound 0.000949 µM, first compound 0.0316 µM
[2] = second compound 0.000949 µM, first compound 0.1 µM
[3] = second compound 0.000949 µM, first compound 0.316 µM
[4] = second compound 0.000949 µM, first compound 1 µM
[5] = second compound 0.000949 µM, first compound 3.16 µM
[6] = second compound 0.000949 µM, first compound 10 µM
[7] = second compound 0.003 µM, first compound 0.0316 µM
[8] = second compound 0.003 µM, first compound 0.1 µM
[9] = second compound 0.003 µM, first compound 0.316 µM
[10] = second compound 0.003 µM, first compound 1 µM
[11] = second compound 0.003 µM, first compound 3.16 µM
[12] = second compound 0.003 µM, first compound 10 µM
[13] = second compound 0.00949 µM, first compound 0.0316 µM
[14] = second compound 0.00949 µM, first compound 0.1 µM
[15] = second compound 0.00949 µM, first compound 0.316 µM
[16] = second compound 0.00949 µM, first compound 1 µM
[17] = second compound 0.00949 µM, first compound 3.16 µM
[18] = second compound 0.00949 µM, first compound 10 µM
[19] = second compound 0.03 µM, first compound 0.0316 µM
[20] = second compound 0.03 µM, first compound 0.1 µM
[21] = second compound 0.03 µM, first compound 0.316 µM
[22] = second compound 0.03 µM, first compound 1 µM
[23] = second compound 0.03 µM, first compound 3.16 µM
[24] = second compound 0.03 µM, first compound 10 µM
[25] = second compound 0.0949 µM, first compound 0.0316 µM
[26] = second compound 0.0949 µM, first compound 0.1 µM
[27] = second compound 0.0949 µM, first compound 0.316 µM
[28] = second compound 0.0949 µM, first compound 1 µM
[29] = second compound 0.0949 µM, first compound 3.16 µM
[30] = second compound 0.0949 µM, first compound 10 µM
[31] = second compound 0.3 µM, first compound 0.0316 µM
[32] = second compound 0.3 µM, first compound 0.1 µM
[33] = second compound 0.3 µM, first compound 0.316 µM
[34] = second compound 0.3 µM, first compound 1 µM
[35] = second compound 0.3 µM, first compound 3.16 µM
[36] = second compound 0.3 µM, first compound 10 µM
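Also: spheroids exposed to agents for seven days before viability readout.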
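For viability, T/C in this document: 100% = DMSO vehicle control viability.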

CC1(O)CCCC1n1c(=O)c(C(F)F)cc2cnc(NC3CCN(S(C)(=O)=O)CC3)nc21 (stereo unspecified) + CCn1c(-c2cccnc2C(C)OC)c2c3cc(ccc31)N1CCOC(CC(NC(=O)C(C(C)C)N(C)C(=O)C3(F)CCN(C(=O)C#CC(C)(C)N(C)C)CC3)C(=O)N3CCCC(N3)C(=O)OCC(C)(C)C2)C1
IC50 (second compound 0.000949 µM): 1.18 µM | IC50 (second compound 0.003 µM): 1.29 µM | IC50 (second compound 0.00949 µM): 1.34 µM | IC50 (second compound 0.03 µM): 1.16 µM | IC50 (second compound 0.0949 µM): 1.18 µM | IC50 (second compound 0.3 µM): 0.83 µM | viability, T/C [1]: 112% | viability, T/C [2]: 105% | viability, T/C [3]: 57.5% | viability, T/C [4]: 53.3% | viability, T/C [5]: 48.3% | viability, T/C [6]: 3.43% | viability, T/C [7]: 114% | viability, T/C [8]: 109% | viability, T/C [9]: 58.3% | viability, T/C [10]: 56.5% | viability, T/C [11]: 49.9% | viability, T/C [12]: 3.17% | viability, T/C [13]: 109% | viability, T/C [14]: 112% | viability, T/C [15]: 61.9% | viability, T/C [16]: 55.3% | viability, T/C [17]: 50.3% | viability, T/C [18]: 3.71% | viability, T/C [19]: 118% | viability, T/C [20]: 112% | viability, T/C [21]: 55.1% | viability, T/C [22]: 50% | viability, T/C [23]: 46% | viability, T/C [24]: 4.07% | viability, T/C [25]: 108% | viability, T/C [26]: 102% | viability, T/C [27]: 60.8% | viability, T/C [28]: 51% | viability, T/C [29]: 49.8% | viability, T/C [30]: 4.02% | viability, T/C [31]: 95.5% | viability, T/C [32]: 74.3% | viability, T/C [33]: 44.1% | viability, T/C [34]: 52.6% | viability, T/C [35]: 52.4% | viability, T/C [36]: 3.81%

CCC(CC)c1cc(NC2CCC(N)C2)n2nccc2n1 (stereo unspecified) + CCn1c(-c2cccnc2C(C)OC)c2c3cc(ccc31)N1CCOC(CC(NC(=O)C(C(C)C)N(C)C(=O)C3(F)CCN(C(=O)C#CC(C)(C)N(C)C)CC3)C(=O)N3CCCC(N3)C(=O)OCC(C)(C)C2)C1
IC50 (second compound 0.000949 µM): 1.82 µM | IC50 (second compound 0.003 µM): 1.76 µM | IC50 (second compound 0.00949 µM): 1.77 µM | IC50 (second compound 0.03 µM): 1.77 µM | IC50 (second compound 0.0949 µM): 1.81 µM | IC50 (second compound 0.3 µM): 1.57 µM | viability, T/C [1]: 107% | viability, T/C [2]: 89.4% | viability, T/C [3]: 109% | viability, T/C [4]: 107% | viability, T/C [5]: 0.55% | viability, T/C [6]: 0.29% | viability, T/C [7]: 101% | viability, T/C [8]: 94.6% | viability, T/C [9]: 89.1% | viability, T/C [10]: 106% | viability, T/C [11]: 0.5% | viability, T/C [12]: 0.26% | viability, T/C [13]: 92.2% | viability, T/C [14]: 92.8% | viability, T/C [15]: 101% | viability, T/C [16]: 111% | viability, T/C [17]: 0.46% | viability, T/C [18]: 0.26% | viability, T/C [19]: 101% | viability, T/C [20]: 93.3% | viability, T/C [21]: 91.2% | viability, T/C [22]: 109% | viability, T/C [23]: 0.45% | viability, T/C [24]: 0.22% | viability, T/C [25]: 103% | viability, T/C [26]: 110% | viability, T/C [27]: 106% | viability, T/C [28]: 102% | viability, T/C [29]: 0.44% | viability, T/C [30]: 0.27% | viability, T/C [31]: 114% | viability, T/C [32]: 112% | viability, T/C [33]: 116% | viability, T/C [34]: 82.1% | viability, T/C [35]: 0.46% | viability, T/C [36]: 0.29%

CCN1CCN(Cc2ccc(Nc3ncc(F)c(-c4cc(F)c5nc(C)n(C(C)C)c5c4)n3)nc2)CC1 + CCn1c(-c2cccnc2C(C)OC)c2c3cc(ccc31)N1CCOC(CC(NC(=O)C(C(C)C)N(C)C(=O)C3(F)CCN(C(=O)C#CC(C)(C)N(C)C)CC3)C(=O)N3CCCC(N3)C(=O)OCC(C)(C)C2)C1
IC50 (second compound 0.000949 µM): > 1 µM | IC50 (second compound 0.003 µM): > 1 µM | IC50 (second compound 0.00949 µM): > 1 µM | IC50 (second compound 0.03 µM): > 1 µM | IC50 (second compound 0.0949 µM): > 1 µM | IC50 (second compound 0.3 µM): 0.93 µM | viability, T/C (second compound 0.000949 µM, first compound 0.00316 µM): 104% | viability, T/C (second compound 0.000949 µM, first compound 0.01 µM): 103% | viability, T/C [1]: 104% | viability, T/C [2]: 122% | viability, T/C [3]: 144% | viability, T/C [4]: 66.5% | viability, T/C (second compound 0.003 µM, first compound 0.00316 µM): 102% | viability, T/C (second compound 0.003 µM, first compound 0.01 µM): 103% | viability, T/C [7]: 105% | viability, T/C [8]: 121% | viability, T/C [9]: 141% | viability, T/C [10]: 59.2% | viability, T/C (second compound 0.00949 µM, first compound 0.00316 µM): 102% | viability, T/C (second compound 0.00949 µM, first compound 0.01 µM): 104% | viability, T/C [13]: 108% | viability, T/C [14]: 128% | viability, T/C [15]: 134% | viability, T/C [16]: 56.8% | viability, T/C (second compound 0.03 µM, first compound 0.00316 µM): 110% | viability, T/C (second compound 0.03 µM, first compound 0.01 µM): 105% | viability, T/C [19]: 118% | viability, T/C [20]: 122% | viability, T/C [21]: 143% | viability, T/C [22]: 67.1% | viability, T/C (second compound 0.0949 µM, first compound 0.00316 µM): 109% | viability, T/C (second compound 0.0949 µM, first compound 0.01 µM): 113% | viability, T/C [25]: 116% | viability, T/C [26]: 121% | viability, T/C [27]: 129% | viability, T/C [28]: 50% | viability, T/C (second compound 0.3 µM, first compound 0.00316 µM): 117% | viability, T/C (second compound 0.3 µM, first compound 0.01 µM): 104% | viability, T/C [31]: 113% | viability, T/C [32]: 116% | viability, T/C [33]: 108% | viability, T/C [34]: 46%
